Reference: patent US6245816A, “Benzoylphenylurea insecticides and methods of using certain benzoylphenylureas to control ants” (priority 2000, dated 2001)

How the values were obtained:
Type in all cases: in vivo
[1] = test system: German cockroach 2nd instars (Blattella germanica); experiment: German cockroach 2nd instars, continuous, low-dose ingestion exposure (treated cornmeal); conditions: for activity relative to hexaflumuron: continuous exposure; for activity relative to hexaflumuron / activities in cockroaches (Compounds 1, 2, and 3 compared): in words; for LC50 (ppm) 21 days / LC50 (ppm) 42 days: continuous ingestion exposure, treated cornmeal; for activities in cockroaches (Compounds 1, 2, and 3 compared): test not specified further, all three compounds were tested only under continuous exposure
Source text: German cockroach 2nd instars (Blattella germanica)
Continuous, low-dose ingestion exposure (treated cornmeal)

[2] = test system: German cockroach 2nd instars (Blittella germanica); experiment: German cockroach 2nd instars, limited ingestion exposure (48 hr) to treated cornmeal; conditions: for potency relative to hexaflumuron: limited exposure, at both 21 and 42 days after exposure, in words
Source text: German cockroach 2nd instars (Blittella germanica)
Limited ingestion exposure (48 hr) to treated cornmeal

[3] = test system: Cat Flea (Ctenocephalides felis); experiment: Cat flea, continuous exposure of larvae to treated media, impact on subsequent adult emergence; conditions: for efficacy relative to hexaflumuron: cat fleas, in words
Source text: Cat Flea (Ctenocephalides felis)
Continuous exposure of larvae to treated media, impact on subsequent adult emergence

[4] = test system: Subterranean Termite (Reticulitermes flavipes); experiment: Subterranean termite, continuous exposure (56 days) to treated paper; conditions: for LC50 (ppm) 56 days / LC50 (ppm) 35 days: continuous exposure to treated paper; for potency and speed of action relative to hexaflumuron: continuous exposure, in words
Source text: (§1) Subterranean Termite (Reticulitermes flavipes)
Continuous exposure (56 days) to treated paper

[5] = test system: Subterranean Termite (Reticulitermes flavipes); experiment: Subterranean termite, limited exposure (7 days), mortality at 14, 28, 42 and 56 days; conditions: high rate, in words
Source text: as §1
Limited exposure (7 days) with mortality determined at 14, 28, 42, and 56 days

[6] = test system: Red Imported Fire Ant (RIFA) (Solenopsis inivicta); experiment: Laboratory ant bait study, Red Imported Fire Ant, brood reduction; conditions: for Time to Achieve 50% Brood Reduction / Time to Achieve 90% Brood Reduction: RIFA, 3-4 day exposure
Description: (§2) Laboratory ant bait studies were carried out with Red Imported Fire Ant (RIFA) (Solenopsis inivicta) and Pharaoh Ant (Monomorium pharionis). Chitin synthesis inhibitors, such as the compounds of the invention, control ants by killing the molting larvae and/or pupae and potentially preventing the hatching of eggs. Because adult workers are not affected, control is measured by effects on the brood. The studies involved 3-4 day exposure to bait. These limited exposure studies more accurately represent real world bait availability than continuous exposure.

[7] = test system: Pharaoh Ant (Monomorium pharionis); experiment: Laboratory ant bait study, Pharaoh Ant, brood reduction; conditions: 0.1% in bait, 3-4 day exposure
Description: as §2

[8] = test system: Daphnia; experiment: Activity against Daphnia, 48 hr exposure to treated water
[9] = limited ingestion exposure (48 hr), treated cornmeal
[10] = continuous exposure of larvae to treated media, subsequent adult emergence
[11] = 0.1% in bait, NA = not achieved

Row | Compound | activity relative to hexaflumuron [1] | LC50 (ppm) 21 days [1] [ppm] | LC50 (ppm) 42 days [1] [ppm] | activities in cockroaches (Compounds 1, 2, and 3 compared) [1] | potency relative to hexaflumuron [2] | LC50 (ppm) 42 days [2, 9] | efficacy relative to hexaflumuron [3] | LC50 (ppm) 56 days [4] [ppm] | potency and speed of action relative to hexaflumuron [4] | LC50 (ppm) 35 days [4] [ppm] | also measured
1 | O=C(NC(=O)c1c(F)cccc1F)Nc1cc(Cl)c(OC(F)(F)C(F)C(F)(F)F)c(Cl)c1F (stereo not shown) [Compound 1, N-[3,5-Dichloro-2-fluoro-4-(1,1,2,3,3,3-hexafluoropropoxy)phenyl]-N'-(2,6-difluorobenzoyl)urea] | far more active than hexaflumuron | < 2.2 | < 0.78 | quite similar | more potent than hexaflumuron | < 9.1 ppm | far more efficacious than hexaflumuron | < 0.78 | more potent and quicker acting than hexaflumuron | – | LC50 (ppm) [3, 10]: 2.8 ppm; LC90 (ppm) [3, 10]: 22 ppm; mortality relative to hexaflumuron [5]: induced more mortality earlier than did hexaflumuron; Time to Achieve 50% Brood Reduction [6, 11]: 2 wks; Time to Achieve 90% Brood Reduction [6, 11]: 3 wks; potency relative to hexaflumuron ([6]; short exposure study with RIFA, in words): significantly more potent than hexaflumuron; Percent brood reduction achieved at end of study ([7]; @ 13 wks): 70%; Time to Achieve 50% Brood Reduction ([7]; NA = not achieved): 4 wks
2 | CCN(C(=O)NC(=O)c1c(F)cccc1F)c1cc(Cl)c(OC(F)(F)C(F)C(F)(F)F)c(Cl)c1F (stereo not shown) [Compound 2, N-[3,5-Dichloro-2-fluoro-4-(1,1,2,3,3,3-hexafluoropropoxy)phenyl]-N'-(2,6-difluorobenzoyl)-N-ethylurea] | far more active than hexaflumuron | 0.35 | 0.26 | quite similar | more potent than hexaflumuron | – | far more efficacious than hexaflumuron | < 0.78 | more potent and quicker acting than hexaflumuron | < 0.78 | activity against Daphnia relative to Compound 1 and hexaflumuron ([8]; in vivo): much less active against Daphnia than were Compound 1 and hexaflumuron
3 | CCN(C(=O)Nc1cc(Cl)c(OC(F)(F)C(F)C(F)(F)F)c(Cl)c1F)C(=O)c1c(F)cccc1F (stereo not shown) [Compound 3, N-[3,5-Dichloro-2-fluoro-4-(1,1,2,3,3,3-hexafluoropropoxy)phenyl]-N'-(2,6-difluorobenzoyl)-N'-ethyl urea] | far more active than hexaflumuron | 8.0 | 1.5 | quite similar | – | – | – | – | – | – | activity against Daphnia relative to Compound 1 and hexaflumuron ([8]; in words): much less active against Daphnia than were Compound 1 and hexaflumuron
4 | O=C(NC(=O)c1c(F)cccc1F)Nc1cc(Cl)c(OC(F)(F)C(F)F)c(Cl)c1 [hexaflumuron, reference compound] | – | > 200 | > 200 | – | – | > 10,000 ppm | – | 1.3 | – | > 200 | LC50 (ppm) 21 days ([2]; limited ingestion exposure (48 hr), treated cornmeal, 21 days): > 10,000 ppm; Time to Achieve 50% Brood Reduction ([6]; 0.25% in bait): 4 wks; Time to Achieve 90% Brood Reduction ([6]; 0.25% in bait): 10 wks
